From patent EP2050437A1, “Improved pharmaceutical dry powder compositions for inhalation” (Laboratoires SMB, priority 2007, dated 2009)

What was measured:
Format in all cases: physicochemical
[1] = In vitro deposition / fine particle assessment with Multi-stage Liquid Impinger (MsLI), Aerolyzer device; design: Metered dose / Device / Throat / Stage 1 / Stage 2 / Stage 3 / Stage 4 / Filter: unit not given here; settings: loaded dose=15mg; for FPD: Fine Particle Dose, aerodynamic diameter inferior to 5 µm
Experimental: The Fine Particle Dose (FPD) has been determined by the method described in the European Pharmacopoeia 4 for the aerodynamic assessment of fine particle, using Apparatus C - Multi-stage Liquid Impinger (MsLI). A dry powder inhalation device (Aerolyzer®, Novartis, Switzerland) was filled with a No. 3 HPMC capsule (Capsugel, France) loaded with 15 mg powder. The flow rate was adjusted to a pressure drop of 4 kPa, as typical for inspiration by a patient, resulting in a flow rate of 100 l/min during 2.4 seconds. At least 3 Fine Particle Dose (FPD) determinations were performed on each formulation and analysis was carried out by a suitable and validated analytical HPLC method. In order to increase the UV absorptivity of the molecule, a derivatization method was applied. The suitable and validated quantification method is described in the USP 25. The HPLC system consisted of a High Performance Liquid Chromatography system (HP 1100 series, Agilent technologies, Belgium), equipped with a quartenary pump, an autosampler and a variable wavelength UV detector set at 365 nm. The separation system was a 30 cm x 3.9 mm stainless steel (5 µm particle size) reversed-phase C18 column (Alltima, Alltech, Belgium). Samples of 20 µl volume were injected. The mobile phase was prepared by dissolving 2 g of Tris(hydroxymethyl) aminomethane in 800 ml of water. After this, 20 ml of H2SO4 1 N was added and then the solution was diluted with acetonitrile to obtain 2 l, mixed and passed through a filter of 0.2 µm porosity. The flow rate was 1.2 ml/min. The mass of test substance retained at each stage was determined from the HPLC analysis of the recovered solutions. Starting at the filter, a cumulative mass deposition (undersize in percentage) vs. cut-off diameter of the respective stages was derived and the FPD was calculated by interpolating the mass of active ingredient less than 5 µm. […] It is considered to be directly proportional to the amount of drug able to reach the pulmonary tract in vivo, and consequently, the higher the value FPD, the higher the estimated lung deposition. […] Table 2: In vitro deposition study, with formulation given in example 1 vs. micronized tobramycin (raw material) (loaded dose=15mg, n=3).

[2] = Particle size distribution by laser diffraction, Mastersizer 2000 with dry sampling (Scirocco); settings: individual particles, dry powder
Text: However, it may be desirable for unstable (redispersible) agglomerates to be formed in the powder, and the size of the agglomerates may be as large as 10 µm or more. The size of particles in the powder, when considering the agglomerates, is to be taken as the size of the individual particles making up the agglomerate. The sizes of the individual particles and of the agglomerates may be determined using a suitable laser light diffraction techniques. For example, the higher compressed air values applied in the dispersion unit of the Mastersizer 2000® (Malvern, U.K.) (up to 4 bar), permit all the agglomerates to break down, especially for micron-sized powders, as is the case for DPI formulations. […] For each formulation, the particle size distribution is measured by laser diffractometry, using a dry sampling system with a suitable SOP (Standard Operating Procedure), (Scirocco®, Mastersizer 2000, Malvern, UK) and a Spraytec, (Malvern). […] The particle size distribution measured with the Mastersizer 2000, Scirocco (Malvern) gives an indication of the size distribution of the individual particles of the powder composition as the powder agglomerates are broken down during the measuring process. […]

[3] = Particle size distribution by laser diffraction, Spraytec with inhalation cell (simulated breathing); settings: agglomerates as at the exit of the DPI
Text: However, it may be desirable for unstable (redispersible) agglomerates to be formed in the powder, and the size of the agglomerates may be as large as 10 µm or more. The size of particles in the powder, when considering the agglomerates, is to be taken as the size of the individual particles making up the agglomerate. The sizes of the individual particles and of the agglomerates may be determined using a suitable laser light diffraction techniques. For example, the higher compressed air values applied in the dispersion unit of the Mastersizer 2000® (Malvern, U.K.) (up to 4 bar), permit all the agglomerates to break down, especially for micron-sized powders, as is the case for DPI formulations. […] This allows the size properties of DPIs to be measured under simulated breathing conditions. For each formulation, the particle size distribution is measured by laser diffractometry, using a dry sampling system with a suitable SOP (Standard Operating Procedure), (Scirocco®, Mastersizer 2000, Malvern, UK) and a Spraytec, (Malvern). The particle size distribution measured with the Mastersizer 2000, Scirocco (Malvern) gives an indication of the size distribution of the individual particles of the powder composition as the powder agglomerates are broken down during the measuring process. […]

- FPD ([1]; n=3): 5.5 ± 0.9 mg
- FPD ([1]; n=3, listed as micronized tobramycin): around 5.5 mg
- Metered dose ([1]; n=3): 12.9 ± 0.3
- Filter ([1]; mass deposited, n=3): 1.4 ± 0.3
- Stage 1 ([1]; mass deposited, n=3): 0.9 ± 0.3
- Stage 2 ([1]; mass deposited, n=3): 0.6 ± 0.4
- Stage 3 ([1]; mass deposited, n=3): 2.1 ± 0.9
- Stage 4 ([1]; mass deposited, n=3): 1.7 ± 0.6
- Throat ([1]; mass deposited, n=3): 0.3 ± 0.1
- Device ([1]; mass deposited, n=3, 100 l/min during 2.4 seconds): 6.0 ± 0.7
- mass median diameter (d(0.5)) [2]: about 1.3 µm
- particles having a diameter below 5.0 µm [3]: 72%
Compound: NC[C@H]1O[C@H](O[C@H]2[C@H](O)[C@@H](O[C@H]3O[C@H](CO)[C@@H](O)[C@H](N)[C@H]3O)[C@H](N)C[C@@H]2N)[C@H](N)C[C@@H]1O [Micronized tobramycin, tobramycin]
